From patent US10130611B2, “Use of benzo-heterocycle derivatives for preventing and treating cancer or for inhibiting cancer metastasis” (MEDICINAL BIOCONVERGENCE RESEARCH CENTER, priority 2009, dated 2018)
Entries after “also recorded” stand apart in the source; their conditions may differ.

What was measured:
MRS-AIMP3 = target: T1, MRS-AIMP3 (Homo sapiens, UniProt P56192); test: Yeast two hybrid specificity test, LexA-MRS/B42-AIMP3 pair; format: cell-based; details: compound at 50 μg/ml, DMSO control 1.4732
T1 construct: expressed in transfected cells; host or cells: yeast
T1 sequence (P56192 1-900): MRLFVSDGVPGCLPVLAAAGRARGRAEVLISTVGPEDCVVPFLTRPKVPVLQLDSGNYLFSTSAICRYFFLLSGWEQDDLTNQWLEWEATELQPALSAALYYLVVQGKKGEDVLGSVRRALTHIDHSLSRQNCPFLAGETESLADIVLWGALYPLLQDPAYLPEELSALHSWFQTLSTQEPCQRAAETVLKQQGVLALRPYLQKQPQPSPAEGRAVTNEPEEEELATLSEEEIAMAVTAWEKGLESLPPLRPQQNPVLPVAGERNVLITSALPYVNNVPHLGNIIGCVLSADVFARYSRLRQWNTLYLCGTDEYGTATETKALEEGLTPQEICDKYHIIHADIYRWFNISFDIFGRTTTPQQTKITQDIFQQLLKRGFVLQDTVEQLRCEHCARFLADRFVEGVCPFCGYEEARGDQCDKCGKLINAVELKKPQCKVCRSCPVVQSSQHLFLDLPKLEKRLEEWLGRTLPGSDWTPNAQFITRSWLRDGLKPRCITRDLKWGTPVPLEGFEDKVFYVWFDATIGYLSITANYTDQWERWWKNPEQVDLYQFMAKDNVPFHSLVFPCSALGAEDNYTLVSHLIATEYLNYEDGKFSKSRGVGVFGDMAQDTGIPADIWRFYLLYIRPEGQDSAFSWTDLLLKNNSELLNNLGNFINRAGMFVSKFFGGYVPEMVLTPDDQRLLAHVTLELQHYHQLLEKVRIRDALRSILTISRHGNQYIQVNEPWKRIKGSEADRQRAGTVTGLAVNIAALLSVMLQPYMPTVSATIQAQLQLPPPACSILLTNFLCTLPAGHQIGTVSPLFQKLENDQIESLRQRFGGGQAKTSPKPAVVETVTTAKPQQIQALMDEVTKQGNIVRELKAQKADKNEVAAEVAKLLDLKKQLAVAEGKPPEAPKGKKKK
Experimental: On the compound of the present invention obtained by screening a library of compounds, the extent of inhibition on the interaction between KRS and laminin receptor (67LR) was determined by a yeast two hybrid assay, as described below. KRS, LR, AIMP2, AIMP3 and MRS were cloned at LexA vector (clontech) and B42 vector (clontech) each so as to produce required vectors. From among the vectors, LexA-KRS vector and B42-LR vector were co-transformed into yeast EGY/SH cells, and then the yeast cells were diluted to an absorbance (540 nm wavelength) of 0.2 in galactose medium not containing uracil (Ura), histidine (His), tryptophane (Trp) and leucine (Leu), and placed in an amount of 200 u in a 96 well plate. 1 μl of each compound at a concentration of 10 mg/ml was placed in each well, incubated for 6 days, and the absorbance was measured at 540 nm. […] The inhibitory specificity of the selected compound was tested by using two different interaction pairs such as LexA-KRS/B42-AIMP2 and LexA-MRS/B42-AIMP3. […]

[1] = test system: Mouse mammary carcinoma 4T-1 cells; test: In vivo cancer metastasis experiment; parameters: species or system Balb/c mice; details: mice, 30 mg/kg once a day for 3 weeks
Experimental: On MMP2 activity (FIG. 37) and cell migration (FIGS. 38 and 39), KL1-dose-dependent effect was measured. For the test on the cell migration, the cells were treated with KL1 for 8 hours. In FIG. 40, in order to see the effect of KL1 on protein synthesis of cells, A549 cells were treated with KL1 at indicated concentrations, and starved in methionine-free medium. Then, [^35S] methionine was added thereto for 2 hours. Then, the cells were incubated in complete medium for 4 hours, and the level of added methionine was measured by a scintillation counter. In FIG. 41, KL1-dose-dependent cytotoxicity was measured by using A549 cells. In FIG. 42, the effect of KL1 on cancer metastasis was measured according to the method as described above. In each group, 6 mice were included, and KL1 was abdominally injected for 3 weeks, in a dose of 30 mg/kg once a day. Then, the mice were sacrificed. The metastasized tumor nodules over 1 mm in diameter were counted, and their average was calculated (left). […]
Mouse mammary carcinoma 4T-1 cells were transfected with si-KRS, si-DRS or si-control, and incubated for 24 hours. […] The growth of a tumor was monitored by measuring a tumor size three times per week. The whole body weights were also simultaneously measured. […] The number and size of metastatic tumor nodules in lungs were measured, and tumor nodules of larger than 1 mm in diameter were separately recorded. […]

MRS-AIMP3 (yeast growth, OD level) (MRS-AIMP3): 1.2443
Structure (SMILES): CCC(C(=O)O)n1/c(=N/C(=O)c2ccc(C)cc2)sc2ccccc21 (stereo not drawn) [Compound of formula 15, 2-[2-(4-Methyl-benzoylimino)-benzothiazol-3-yl]-butyric acid]
number of metastasized nodules ([1]; abdominally injected, lung nodules over 1 mm in diameter): significantly reduced
primary tumor growth (weight and size) ([1]; KL1 treated vs non-treated group, listed as KL1, 30 mg/kg): no significant difference in weight and size; also recorded: did not affect
